Measurements as given in patent US20250353830A1, “NOVEL COMPOUNDS” (Hoffmann-La Roche Inc., priority 2022, published 2025).

Tests used:
NLRP3 [1] = molecular target: T1, NLRP3 (Homo sapiens, UniProt Q96P20); test: THP-1 cells pyroptosis assay (LPS priming, nigericin, resazurin read-out); assay type: cell-based; design: Seed THP-1 cells (25,000 cells/well) containing 1.0 μg/ml LPS; host or cells: THP-1 cells, LPS-primed, nigericin-stimulated; conditions: 1 μg/ml LPS, 3 hours compound, 5 μM nigericin 1 hr
Experimental: THP-1 cells (ATCC #TIB-202) were grown in RPMI containing L-glutamine (Gibco #11835) supplemented with 1 mM sodium pyruvate (Sigma #S8636) and penicillin (100 units/ml)/streptomycin (0.1 mg/ml) (Sigma #P4333) in 10% Fetal Bovine Serum (FBS) (Sigma #F0804). The cells were routinely passaged and grown to confluency (˜10^6 cells/ml). On the day of the experiment, THP-1 cells were harvested and resuspended into RPMI medium (without FBS). The cells were then counted and viability (>90%) checked by Trypan blue (Sigma #T8154). Appropriate dilutions were made to give a concentration of 625,000 cells/ml. To this diluted cell solution was added LPS (Sigma #L4524) to give a 1 μg/ml Final Assay Concentration (FAC). 40 μl of the final preparation was aliquoted into each well of a 96-well plate. The plate thus prepared was used for compound screening.
The following method step-by-step assay was followed for compound screening. • 1. Seed THP-1 cells (25,000 cells/well) containing 1.0 μg/ml LPS in 40 μl of RPMI medium (without FBS) in 96-well, black walled, clear bottom cell culture plates coated with poly-D-lysine (VWR #734-0317) • 2. Add 5 μl compound (8 points half-log dilution, with 10 μM top dose) or vehicle (DMSO 0.1% FAC) to the appropriate wells • 3. Incubate for 3 hours at 37° C., 5% CO2 • 4. Add 5 μl nigericin (Sigma #N7143) (FAC 5 μM) to all wells • 5. Incubate for 1 hr at 37° C., 5% CO2 • 6. At the end of the incubation period, spin plates at 300×g for 3 mins and remove supernatant • 7. Then add […] of resazurin (Sigma #R7017) (FAC 100 μM resazurin in RPMI medium without FBS) and incubate plates for a further 1-2 hours at 37° C. and 5% CO2 • 8. Plates were read in an Envision reader at Ex 560 nm and Em 590 nm • 9. IC50 data is fitted to a non-linear regression equation (log inhibitor vs response-variable slope 4-parameters)

NLRP3 [2] = molecular target: T1, NLRP3; test: Human whole blood IL-1β release assay (LPS, nigericin, AlphaLisa); assay type: cell-based; design: Plate out 80 μl of whole blood containing 1 μg/ml of LPS; from tissue; host or cells: human whole blood from healthy donors, LPS-primed, nigericin-stimulated; conditions: 1 μg/ml LPS, 3 hours compound, 10 μM nigericin 1 hr, IL-1β in supernatant
Experimental: For systemic delivery, the ability to inhibit NLRP3 when the compounds are present within the bloodstream is of great importance. For this reason, the NLRP3 inhibitory activity of a number of compounds in human whole blood was investigated in accordance with the following protocol.
Human whole blood in Li-heparin tubes was obtained from healthy donors from a volunteer donor panel. • 1. Plate out 80 μl of whole blood containing 1 μg/ml of LPS in 96-well, clear bottom cell culture plate (Corning #3585) • 2. Add 10 μl compound (8 points half-log dilution with 10 μM top dose) or vehicle (DMSO 0.1% FAC) to the appropriate wells • 3. Incubate for 3 hours at 37° C., 5% CO2 • 4. Add 10 μl nigericin (Sigma #N7143) (10 μM FAC) to all wells • 5. Incubate for 1 hr at 37° C., 5% CO2 • 6. At the end of the incubation period, spin plates at 300×g for 5 mins to pellet cells and remove 20 μl of supernatant and add to 96-well v-bottom plates for IL-1β analysis (note: these plates containing the supernatants can be stored at −80° C. to be analysed at a later date) • 7. IL-1β was measured according to the manufacturer protocol (Perkin Elmer-AlphaLisa IL-1 Kit AL220F-5000) • 8. IC50 data is fitted to a non-linear regression equation (log inhibitor vs response-variable slope 4-parameters)

T1 sequence (Q96P20 whole entry): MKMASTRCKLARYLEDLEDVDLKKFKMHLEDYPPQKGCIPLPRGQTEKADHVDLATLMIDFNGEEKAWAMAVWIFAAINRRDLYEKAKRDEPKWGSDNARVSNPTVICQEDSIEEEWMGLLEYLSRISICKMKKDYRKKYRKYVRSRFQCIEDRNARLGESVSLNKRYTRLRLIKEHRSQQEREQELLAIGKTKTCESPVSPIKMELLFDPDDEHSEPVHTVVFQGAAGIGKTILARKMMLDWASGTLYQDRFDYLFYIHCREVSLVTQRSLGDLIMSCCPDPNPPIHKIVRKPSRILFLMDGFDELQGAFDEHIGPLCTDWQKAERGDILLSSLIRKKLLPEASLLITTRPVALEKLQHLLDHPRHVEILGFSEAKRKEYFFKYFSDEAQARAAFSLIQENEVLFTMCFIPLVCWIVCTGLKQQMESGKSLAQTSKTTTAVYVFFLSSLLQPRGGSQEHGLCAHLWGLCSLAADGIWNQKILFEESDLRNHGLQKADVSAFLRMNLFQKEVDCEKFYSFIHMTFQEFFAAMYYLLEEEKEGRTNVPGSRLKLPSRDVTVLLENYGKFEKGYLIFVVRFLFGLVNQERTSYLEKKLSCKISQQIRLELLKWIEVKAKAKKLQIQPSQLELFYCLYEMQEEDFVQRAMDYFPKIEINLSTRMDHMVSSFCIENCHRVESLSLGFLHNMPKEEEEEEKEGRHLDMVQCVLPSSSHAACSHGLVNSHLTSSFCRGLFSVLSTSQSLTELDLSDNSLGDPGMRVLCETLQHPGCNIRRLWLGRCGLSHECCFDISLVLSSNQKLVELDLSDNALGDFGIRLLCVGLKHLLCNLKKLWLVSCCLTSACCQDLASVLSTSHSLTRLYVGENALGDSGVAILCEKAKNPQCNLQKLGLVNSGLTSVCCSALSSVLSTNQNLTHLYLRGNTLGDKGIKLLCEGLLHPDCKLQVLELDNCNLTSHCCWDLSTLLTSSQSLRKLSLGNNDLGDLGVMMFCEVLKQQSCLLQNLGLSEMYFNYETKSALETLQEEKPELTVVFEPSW

Row | Compound | IC50 (NLRP3 [1]) [µM] | IC50 (NLRP3 [2]) [µM]
1 | CCN1CCC[C@@H](Nc2cc(C)c(-c3ccc4cc(C#N)[nH]c4c3)nn2)C1 [Example 8, 6-[6-[[(3R)-1-Ethyl-3-piperidyl]amino]-4-methyl-pyridazin-3-yl]-1H-indole-2-carbonitrile] | 0.123 | 
2 | CCN1CCC[C@@H](Nc2cc(C)c(-c3ccc4c(C#N)c[nH]c4c3)nn2)C1 [Example 7, 6-[6-[[(3R)-1-Ethyl-3-piperidyl]amino]-4-methyl-pyridazin-3-yl]-1H-indole-3-carbonitrile] | 0.133 | 
3 | CCN1CCC[C@@H](Nc2ccc(-c3cc4[nH]ccc4cc3C)nn2)C1 [Example 16, N-[(3R)-1-Ethyl-3-piperidyl]-6-(5-methyl-1H-indol-6-yl)pyridazin-3-amine] | 0.021 | 0.113
4 | CCN1CCC[C@@H](Nc2nnc(-c3ccc4cc[nH]c4c3)c(C)n2)C1 [Example 13, N-[(3R)-1-Ethyl-3-piperidyl]-6-(1H-indol-6-yl)-5-methyl-1,2,4-triazin-3-amine] | 0.0473 | 0.0286
5 | Cc1cc(N2CC[C@H]3CCN(C)C[C@H]32)nnc1-c1ccc2c(F)c[nH]c2c1 [Example 18B, (3aR,7aS)-1-[6-(3-fluoro-1H-indol-6-yl)-5-methyl-pyridazin-3-yl]-6-methyl-3,3a,4,5,7,7a-hexahydro-2H-pyrrolo[2,3-c]pyridine] | 0.037 | 0.179
6 | CCN1CCC[C@@H](Nc2cc(C)c(-c3cc4[nH]ccc4cc3F)nn2)C1 [Example 3, N-[(3R)-1-ethyl-3-piperidyl]-6-(5-fluoro-1H-indol-6-yl)-5-methyl-pyridazin-3-amine] | 0.0092 | 0.0486
7 | CCN1CCC[C@@H](Nc2cc(C)c(-c3ccc4c(C)c[nH]c4c3)nn2)C1 [Example 4, N-[(3R)-1-Ethyl-3-piperidyl]-5-methyl-6-(3-methyl-1H-indol-6-yl)pyridazin-3-amine] | 0.0437 | 0.234
8 | CCc1cc(N[C@@H]2CCCN(CC)C2)nnc1-c1ccc2c(F)c[nH]c2c1 [Example 12, 5-Ethyl-N-[(3R)-1-ethyl-3-piperidyl]-6-(3-fluoro-1H-indol-6-yl)pyridazin-3-amine] | 0.0183 | 0.0254
9 | Cc1cc(N[C@H]2C[C@@](C)(O)C2)nnc1-c1ccc2c(F)c[nH]c2c1 [Example 17, 3-[[6-(3-Fluoro-1H-indol-6-yl)-5-methyl-pyridazin-3-yl]amino]-1-methyl-cyclobutanol] | 0.493 | 
10 | CCN1CCC[C@@H](Nc2nnc(-c3ccc4c(F)c[nH]c4c3)c(C)n2)C1 [Example 14, N-[(3R)-1-Ethyl-3-piperidyl]-6-(3-fluoro-1H-indol-6-yl)-5-methyl-1,2,4-triazin-3-amine] | 0.0559 | 0.0432
11 | CCN1CCC[C@@H](Nc2nnc(-c3ccc4cc[nH]c4c3)c3c2cnn3C)C1 [Example 15, N-[(3R)-1-Ethyl-3-piperidyl]-7-(1H-indol-6-yl)-1-methyl-pyrazolo[3,4-d]pyridazin-4-amine] | 0.027 | 0.052
12 | CCN1CCC[C@@H](Nc2cc(C)c(-c3ccc4cc[nH]c4c3F)nn2)C1 [Example 10, N-[(3R)-1-ethyl-3-piperidyl]-6-(7-fluoro-1H-indol-6-yl)-5-methyl-pyridazin-3-amine] | 0.0226 | 0.0451
13 | CCN1CCC[C@@H](Nc2cc(C)c(-c3ccc4cc(C)[nH]c4c3)nn2)C1 [Example 6, N-[(3R)-1-Ethyl-3-piperidyl]-5-methyl-6-(2-methyl-1H-indol-6-yl)pyridazin-3-amine] | 0.0123 | 0.0562

Stronger by IC50 (NLRP3 [1]), values ahead:

Row | IC50 (NLRP3 [1]) [µM] | IC50 (NLRP3 [2]) [µM] | Compound
14 | 0.0051 | 0.0171 | CCN1CCC[C@@H](Nc2cc(C)c(-c3ccc4cc[nH]c4c3)nn2)C1 [Example 1, N-[(3R)-1-Ethyl-3-piperidyl]-6-(1H-indol-6-yl)-5-methyl-pyridazin-3-amine]
15 | 0.002 | 0.031 | Cc1cc(N2CC[C@@H]3CCN(C)C[C@@H]32)nnc1-c1ccc2c(F)c[nH]c2c1 (single isomer, unassigned) [Example 18A]
16 | 0.0051 | 0.0441 | CCN1CCC[C@@H](Nc2cc(C(F)(F)F)c(-c3ccc4c(F)c[nH]c4c3)nn2)C1 [Example 11, N-[(3R)-1-Ethyl-3-piperidyl]-6-(3-fluoro-1H-indol-6-yl)-5-(trifluoromethyl)pyridazin-3-amine]
17 | 0.0027 | 0.0095 | CCN1CCC[C@@H](Nc2cc(C)c(-c3ccc4c(F)c[nH]c4c3)nn2)C1 [Example 2, N-[(3R)-1-Ethyl-3-piperidyl]-6-(3-fluoro-1H-indol-6-yl)-5-methyl-pyridazin-3-amine]
18 | 0.0049 | 0.0265 | Cc1cc(N[C@@H]2CCCN(C)C2)nnc1-c1ccc2c(F)c[nH]c2c1 [Example 9, 6-(3-Fluoro-1H-indol-6-yl)-5-methyl-N-[(3R)-1-methyl-3-piperidyl]pyridazin-3-amine]
